# Measurements from US12103983B2, “Compound and angiogenic agent comprising same” (HiPep Laboratories, priority 2018, dated 2024).
# Bridge positions count the residues as written; N and C are the ends. Square brackets hold non-standard residues; d marks the D form. Peptide text beside a SMILES is read from it. AEEA = NCCOCCOCC(=O)O
# Tested on: endogenous cellular enzyme
# Assay: Stability test against endogenous cellular enzyme (HUVEC cell lysate)
# Format: in vitro ADME, human
# Conditions: 37° C., after 6 hours of the assay
# Description: In order to test retention of the effect, and usefulness as a drug, each peptide was subjected to a stability test against endogenous cellular enzyme.
# Human vascular endothelial cells (HUVECs (Human Umbilical Vein Endothelial Cells, Promocell GmbH.)) were used. Cryopreserved HUVECs were cultured for 2 days in Endothelial Cell Growth Medium (Promocell GmbH.). The cells were detached and collected by a conventional method using trypsin-EDTA, and washed with H2O, followed by addition of Lysis Buffer for Enzyme extraction (5 mL of TBS pH 7.5, 5 mL of Triton X100 (trade name), 40 mL of H2O with cOmplete mini, manufactured by Roche) thereto. The resulting mixture was left to stand on ice for 30 minutes to lyse the cells. The resulting cell lysate was centrifuged at 13,000 rpm at 4° C. for 3 min, and the supernatant was collected. The protein concentration was measured at A280 (Nano drop, Thermofischer scientific), and then adjusted to 2 mg/mL to prepare a protein solution for an assay.
# In each of PCR tubes, 50 μL of each of four kinds of AGP solutions (2 mg/mL)+20 μL of the cell lysate (2 mg/mL)+30 μL of H2O were mixed together, and the resulting mixtures were incubated at 37° C. in an incubator for 0, 1, 3, or 6 hours. Thereafter, each mixture was heated in a hot water bath at 90° C. for 5 minutes to inactivate enzyme, and then subjected to LC-MS analysis. The remaining peptide was quantified based on the area value of the peak detected with UV 210 nm in LC.
row,Structure (SMILES),remaining peptide / degradation (in words)
1,"CC(C)CC1NC(=O)CNC(=O)C(Cc2ccccc2)NC(=O)C(C(C)C)NC(=O)C(C(C)C)NC(=O)C(CO)NC(=O)COCCOCCNC(=O)C(N)CSSCC(C(N)=O)NC(=O)CNC(=O)C(CCCNC(=N)N)NC1=O (stereo not drawn) [cAGP3, Cyclic(Cys-O2Oc-SVVFGLR-G-Cys)-NH2] (H-C[AEEA]SVVFGLRGC-NH2; disulfide 1-11; configuration not given here)",remained almost without degradation
2,"CC(C)CC(NC(=O)CNC(=O)C(Cc1ccccc1)NC(=O)C(NC(=O)C(NC(=O)C(CO)NC(=O)COCCOCCN)C(C)C)C(C)C)C(=O)NC(CCCNC(=N)N)C(N)=O (stereo not drawn) [AGP-O2Oc, O2Oc-SVVFGLR-NH2] (H-[AEEA]SVVFGLR-NH2; configuration not given here)",same level of stability
3,"CC(C)CC1NC(=O)CNC(=O)C(Cc2ccccc2)NC(=O)C(C(C)C)NC(=O)C(C(C)C)NC(=O)C(CO)NC(=O)COCCOCCNC(=O)C(N)CSSCC(C(N)=O)NC(=O)CNC(=O)C(CCCNC(=N)N)NC1=O (stereo not drawn) [cAGP2, Cyclic(DCys-O2Oc-SVVFGLR-G-DCys)-NH2] (H-C[AEEA]SVVFGLRGC-NH2; disulfide 1-11; configuration not given here)",remained almost without degradation
